The source of these data is patent US12691092B2, “Method for reducing cutaneous skin scarring by pre-emptive priming and compounds and compositions for its implementation” (SOS SCIENCE OF SKIN LTD, priority 2020, dated 2026).

The test system of this experiment is human skin scarring model. Nature of the experiment: Scar thickness by H+E stain. Format: in vivo. The settings on record: weeks 4 and 8, Groups 1, 2 and 4. The protocol:
A double-blind randomized placebo-controlled trial was conducted using a temporal punch-biopsy model. The punch biopsy and topical application methodology used in the study is illustrated in FIG. 1, namely showing pre-injury pre-emptive priming (7-days), pre-injury pre-emptive priming (3-days), day of injury (immediate application on day 0), post-injury (delayed 2 weeks post injury) including biopsy time points and time of topical applications. Each group applied both placebo and topical formulations twice daily for the duration of the study until week 8, with only the starting time point differing between groups Participants were split into 4 groups (n=10 in each group) in order to compare different modes (timings) of commencement of the topical application: • Group-1: Pre-emptive Priming (7-days): pre-injury • Group-2: Pre-emptive Priming (3-days): pre-injury • Group-3: Immediate (0-day): day-of-injury • Group-4: Delayed (14-days): post-injury Clinical quantitative devices were used to objectively monitor cutaneous healing at weekly intervals and punch biopsies were performed on day 0 (uninjured skin) and at weeks 4 and 8 for protein and gene expression analyses. […] Excisional skin biopsies in upper arms were evaluated weekly with multiple quantitative devices over an 8-week period. […]

On to `O=C(OC1Cc2c(O)cc(O)cc2OC1c1cc(O)c(O)c(O)c1)c1cc(O)c(O)c(O)c1` (single isomer, unassigned; (-)) [EGCG, (-)-epigallocatechin-3-gallate], for which the “Scar thickness by H+E stain with EGCG” value is recorded as “reduced scar thickness”.
